Reference: patent publication US7964584B2, “Method of treating or preventing osteoporosis comprising administering to a patient in need thereof an effective amount of pharmaceutical composition comprising benzamidine derivatives or their salts, and alendronic acid or its salt” (Dong Wha Pharmaceutical Co., Ltd., priority 2008, dated 2011)

System: osteoclast differentiation (co-culture of bone marrow cells and osteoblasts)
Assay: Osteoclast differentiation via co-culture of bone marrow cells and osteoblasts, count of TRAP(+) MNCs
Assay type: cell-based, mice
Settings: individual treatment, 7 days culture; for relative number of TRAP(+) MNCs (mature osteoclasts with 6 or more nuclei), control group = 100%: n=4
Description: The osteoclast differentiation was induced by co-culture system between bone marrow cells and […] inhibitory effect of the drug on osteoclast differentiation was evaluated by treatment of single or combination formulation. […] Cells were removed from the bone marrow cells, followed by centrifugation. After the bone marrow cells were suspended in α-MEM medium supplemented with 10% FBS, and the numbers of the eukaryotic cells in the harvested bone marrow cells were counted and then immediately used for a co-culture system. The mouse calvaria were aseptically isolated from 1 2 day-old neonatal ICR mice, and the […], primary osteoblasts were isolated by sequential treatment with an enzyme solution of 0.2% collagenase. The isolated […] centrifuged, resuspended with α-MEM containing 10% FBS and cultured until confluent. Then, these cells were diluted to a desired cell number, and used for the experiment. The bone marrow cells (1×10^5 cells/well) and osteoblasts (3,000 cells/well) prepared in the above were plated in a 96-well plate using α-MEM medium supplemented with 10% FBS. At this time, differentiation factors, 1α,25-dihydroxyvitamin D3 (10^-8 M, hereinbelow, referred to as vitamin D3) and dexamethasone (10^-8 M), were co-added to the osteoclastic medium. The medium was replaced with fresh media containing the differentiation factors every 2 to 3 days. After 7 days, when multinucleated osteoclasts were observed, the medium was removed from the wells, and then the cells were fixed with PBS containing 10% formalin. An index of osteoclast formation was determined by counting number of Tartrate-Resistant Acid Phosphatase-positive multinucleated osteoclasts (herein below, referred to as TRAP(+) MNCs). The TRAP staining solution was contained naphtol AS-MX phosphate(pH5.0)as a substrate, Fast Red violet LB as a coloring agent and 50 mM tartaric acid and stored at a refrigerator until use. The number of TRAP(+) MNCs containing more than 6-7 or more nuclei were counted under a microscope. […] All experiments were performed using the osteoclastic media containing vitamin D3 and dexamethasone. […] Sodium alendronate hydrate was dissolved in purified water at a concentration of 0.2 mM, and then diluted 1,000 fold with the osteoclastic media to a final concentration of 0.2 μM. In this connection, a control group was maintained in 0.1% DMSO. Each experiment was performed by individual or combination treatment, as follows. […] The number of TRAP(+) MNCs with 6 or more nuclei were counted under a microscope. The results were expressed as a percentage of the relative number of mature osteoclast observed in each experimental group, when the number of mature osteoclast in the control group (solvent only) was regarded as 100%. […]

SMILES | relative number of TRAP(+) MNCs (mature osteoclasts with 6 or more nuclei), control group = 100% (0.1 μM) | relative number of osteoclast, control group = 100% (0.3 μM) | relative number of osteoclast, control group = 100% (0.5 μM) | relative number of TRAP(+) MNCs (mature osteoclasts with 6 or more nuclei), control group = 100% (0.2 μM)
CS(=O)(=O)O.CS(=O)(=O)O.Cc1nc(-c2ccc(OCCCCCOc3ccc(C(=N)NO)cc3)cc2)c(C(C)C)s1 [N-hydroxy-4-{5-[4-(5-isopropyl-2-methyl-1,3-thiazol-4-yl)phenoxy]pentoxy}benzamidine dimethanesulfonate] | significant reduction | 52.4% | 34.5% | 
NCCCC(O)(P(=O)(O)O)P(=O)(O)O [sodium alendronate, reference compound] |  |  |  | 80.6% and significantly reduced
